Measurements published in ChEMBL document CHEMBL3576804, “Novel Potent Orthosteric Antagonist of ASIC1a Prevents NMDAR-Dependent LTP Induction” (J Med Chem, 2015).
Calls of active or inactive are those of the source. No cut-off for these calls is given here.

Columns and labels:
Format in all cases: cell-based
[1] = target: T1, Acid-sensing ion channel 1 (Homo sapiens) (UniProt P78348); assay: Inhibition of human ASIC1a endogenously expressed in HEK293 cells clamped at -100 mV gated ionic current at 100 uM at pH 5.0 by standard whole cell patch clamp assay
T1 sequence (whole entry): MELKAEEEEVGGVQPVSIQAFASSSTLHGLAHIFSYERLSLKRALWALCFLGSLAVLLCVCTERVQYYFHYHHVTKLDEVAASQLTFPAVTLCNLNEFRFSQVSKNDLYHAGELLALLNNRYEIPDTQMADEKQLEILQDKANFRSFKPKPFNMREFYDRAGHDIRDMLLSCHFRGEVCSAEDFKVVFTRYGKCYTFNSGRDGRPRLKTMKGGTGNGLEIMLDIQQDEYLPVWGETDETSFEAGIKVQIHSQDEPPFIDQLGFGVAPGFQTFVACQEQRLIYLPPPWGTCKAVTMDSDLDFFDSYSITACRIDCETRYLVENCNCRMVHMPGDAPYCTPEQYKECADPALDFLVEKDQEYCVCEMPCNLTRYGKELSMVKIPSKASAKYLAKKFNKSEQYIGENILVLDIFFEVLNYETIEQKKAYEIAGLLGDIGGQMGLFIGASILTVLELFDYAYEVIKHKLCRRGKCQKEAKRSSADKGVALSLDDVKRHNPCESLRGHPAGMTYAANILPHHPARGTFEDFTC

[2] = target: T1, Acid-sensing ion channel 1 (Homo sapiens); assay: Inhibition of human ASIC1a endogenously expressed in HEK293 cells clamped at -100 mV gated ionic current at 10 uM at pH 6.7 by standard whole cell patch clamp assay
[3] = target: T1, Acid-sensing ion channel 1 (Homo sapiens); assay: Inhibition of human ASIC1a endogenously expressed in HEK293 cells clamped at -100 mV gated ionic current at 100 uM at pH 6.7 by standard whole cell patch clamp assay
[4] = target: T1, Acid-sensing ion channel 1 (Homo sapiens); assay: Inhibition of human ASIC1a endogenously expressed in HEK293 cells clamped at -100 mV gated ionic current at 10 uM at pH 5.0 by standard whole cell patch clamp assay
[5] = target: T1, Acid-sensing ion channel 1 (Homo sapiens); assay: Reversible inhibition of human ASIC1a endogenously expressed in HEK293 cells clamped at -100 mV gated ionic current at 100 nM to 100 uM at pH 6.7 by standard whole cell patch clamp assay
[6] = target: T1, Acid-sensing ion channel 1 (Homo sapiens); assay: Inhibition of human ASIC1a endogenously expressed in HEK293 cells clamped at -100 mV gated ionic current at 100 nM at pH 6.7 by standard whole cell patch clamp assay
[7] = target: T1, Acid-sensing ion channel 1 (Homo sapiens); assay: Inhibition of human ASIC1a endogenously expressed in HEK293 cells clamped at -100 mV gated ionic current at 100 nM at pH 5.0 by standard whole cell patch clamp assay
[8] = target: T1, Acid-sensing ion channel 1 (Homo sapiens); assay: Reversible inhibition of human ASIC1a endogenously expressed in HEK293 cells clamped at -100 mV gated ionic current at 100 nM to 100 uM at pH 5.0 by standard whole cell patch clamp assay

CCN(CC)CCN(Cc1ccccc1)c1ccc2cc(C(=N)N)c(=O)oc2c1
inhibition [1]: 28.8%
inhibition [2]: 22.1%
inhibition [3]: 3.7%
inhibition [4]: 65.7%
inhibition [5]: Active
inhibition [6]: 68.9%
inhibition [7]: 96.1%
inhibition [8]: Active

CCN(CC)CCN(CC)c1ccc2cc(C(=N)N)c(=O)oc2c1
inhibition [1]: 78.7%
inhibition [2]: 77.5%
inhibition [3]: 53.2%
inhibition [4]: 101%

CN(Cc1ccccc1)c1ccc2cc(C(=N)N)c(=O)oc2c1
inhibition [1]: 36.6%
inhibition [2]: 42.9%
inhibition [3]: 22.3%
inhibition [4]: 79.2%
